This note sets out measurements from US7632858B2 (priority 2002, dated 2009).

Test [1] has as its target wild type AR. As to conditions: read-out: Kd for [3H]-DHT; MDA 453 cells, Scatchard analysis. The protocol: For the whole-cell binding assay, human LNCaP cells (T877A mutant AR) or MDA 453 (wild type AR) in 96-well microtiter plates containing RPMI 1640 or DMEM supplemented with 10% charcoal stripped CA-FBS (Cocaleco Biologicals) respectively, were incubated at 37° C. to remove any endogenous ligand that might be complexed with the receptor in the cells.
For the saturation analysis, the difference between the total binding and the non-specific binding, was defined as specific binding. […] See e.g. D. Rodbard, Mathematics and statistics of ligand assays: an illustrated guide: In: J. Langon and J. J. Clapp, eds., Ligand Assay, Masson Publishing U.S.A., Inc., New York, pp. 45-99, (1981), the disclosure of which is herein incorporated by reference.
Two replicates were used for each sample.

Test [2] deals with T1, AR (Rattus norvegicus, UniProt P15207).
T1 sequence (P15207 1-902): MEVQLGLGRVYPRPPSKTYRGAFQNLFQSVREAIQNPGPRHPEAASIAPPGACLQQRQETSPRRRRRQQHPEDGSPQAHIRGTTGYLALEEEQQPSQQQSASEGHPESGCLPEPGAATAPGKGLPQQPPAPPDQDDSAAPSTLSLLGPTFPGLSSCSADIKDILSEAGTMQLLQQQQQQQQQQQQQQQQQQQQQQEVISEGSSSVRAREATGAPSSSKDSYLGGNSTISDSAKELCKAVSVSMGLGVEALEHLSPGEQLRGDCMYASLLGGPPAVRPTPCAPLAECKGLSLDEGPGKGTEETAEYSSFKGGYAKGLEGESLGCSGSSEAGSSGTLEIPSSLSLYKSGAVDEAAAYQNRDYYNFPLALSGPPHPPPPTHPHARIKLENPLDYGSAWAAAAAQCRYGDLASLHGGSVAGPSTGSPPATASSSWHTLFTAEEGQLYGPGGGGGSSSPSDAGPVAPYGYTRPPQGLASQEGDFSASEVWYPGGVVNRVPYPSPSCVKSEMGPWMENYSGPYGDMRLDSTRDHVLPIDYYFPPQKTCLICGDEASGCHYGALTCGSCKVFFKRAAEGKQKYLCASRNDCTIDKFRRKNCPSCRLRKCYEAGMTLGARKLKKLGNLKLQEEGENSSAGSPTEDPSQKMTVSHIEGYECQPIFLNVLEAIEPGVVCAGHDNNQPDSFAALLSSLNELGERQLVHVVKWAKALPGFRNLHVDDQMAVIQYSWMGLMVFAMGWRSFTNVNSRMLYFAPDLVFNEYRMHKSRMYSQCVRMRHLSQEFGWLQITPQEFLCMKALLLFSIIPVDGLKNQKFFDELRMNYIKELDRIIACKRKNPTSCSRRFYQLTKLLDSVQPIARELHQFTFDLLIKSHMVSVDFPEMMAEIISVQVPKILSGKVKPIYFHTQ
The source says:
The activity of compounds of the present invention as AR agonists was investigated in an immature male rat model, a recognized test of anabolic effects in muscle and sustaining effects in sex organs for a given compound, as described in L. G. Hershberger et al., Proc. Soc. […] Biol. Med., 83, 175 (1953); B. L. Beyler et al, “Methods for evaluating anabolic and catabolic agents in laboratory animals”, J. Amer. Med. Women's Ass., 23, 708 (1968); H. Fukuda et al., “Investigations of the levator ani muscle as an anabolic steroid assay”, Nago Dai. […] Nem. 14, 84 (1966) the disclosures of which are herein incorporated by reference.
The basis of this assay lies in the well-defined action of androgenic agents on the maintenance and growth of muscle tissues and sexual accessory organs in animals and man. […] J. Anat. […] Ital. Biol. Sper. […] II. […] Ital. Biol. Sper. 42, 1600 (1966); A. Boris et al., Steroids 15, 61 (1970). As described above, the effects of androgens on maintenance of male sexual accessory organs, such as the prostate and seminal vesicles, is well described. Castration results in rapid involution and atrophy of the prostate and seminal vesicles. This effect can be reversed by exogenous addition of androgens. […]

Take “tritiated dihydrotestosterone [[^3H]-DHT]”: the Kd (as a rule, the equilibrium constant for the complex coming apart) in test [1] worked out at 0.7 nM.

In the case of `CCC(=O)O[C@H]1CC[C@H]2[C@@H]3CCC4=CC(=O)CC[C@]4(C)[C@H]3CC[C@]12C` [TP, testosterone propionate], the “potency relative to free T” value in test [2] (TP versus free T) is listed as 10-30 fold. Further, the “EC50 (increase in organ weight)” value in test [2] (immature castrated rats) is roughly 0.03 mg.
